Measurements published in patent US11020381B2, “Biaryloxy derivatives as TTX-S blockers” (RaQualia Pharma Inc., priority 2017, dated 2021).
Several values for one entry are separate records, joined by “and”; a condition that tells them apart may be missing. Equal entries are not always repeated. Where two headings read alike, the source gives them in different places.

Legend:
Nav1.7 [1] = molecular target: T1, Nav1.7 (Homo sapiens (Human), UniProt Q15858); test: Manual patch clamp assay, two pulse protocol; format: cell-based
T1 sequence (Q15858 whole entry): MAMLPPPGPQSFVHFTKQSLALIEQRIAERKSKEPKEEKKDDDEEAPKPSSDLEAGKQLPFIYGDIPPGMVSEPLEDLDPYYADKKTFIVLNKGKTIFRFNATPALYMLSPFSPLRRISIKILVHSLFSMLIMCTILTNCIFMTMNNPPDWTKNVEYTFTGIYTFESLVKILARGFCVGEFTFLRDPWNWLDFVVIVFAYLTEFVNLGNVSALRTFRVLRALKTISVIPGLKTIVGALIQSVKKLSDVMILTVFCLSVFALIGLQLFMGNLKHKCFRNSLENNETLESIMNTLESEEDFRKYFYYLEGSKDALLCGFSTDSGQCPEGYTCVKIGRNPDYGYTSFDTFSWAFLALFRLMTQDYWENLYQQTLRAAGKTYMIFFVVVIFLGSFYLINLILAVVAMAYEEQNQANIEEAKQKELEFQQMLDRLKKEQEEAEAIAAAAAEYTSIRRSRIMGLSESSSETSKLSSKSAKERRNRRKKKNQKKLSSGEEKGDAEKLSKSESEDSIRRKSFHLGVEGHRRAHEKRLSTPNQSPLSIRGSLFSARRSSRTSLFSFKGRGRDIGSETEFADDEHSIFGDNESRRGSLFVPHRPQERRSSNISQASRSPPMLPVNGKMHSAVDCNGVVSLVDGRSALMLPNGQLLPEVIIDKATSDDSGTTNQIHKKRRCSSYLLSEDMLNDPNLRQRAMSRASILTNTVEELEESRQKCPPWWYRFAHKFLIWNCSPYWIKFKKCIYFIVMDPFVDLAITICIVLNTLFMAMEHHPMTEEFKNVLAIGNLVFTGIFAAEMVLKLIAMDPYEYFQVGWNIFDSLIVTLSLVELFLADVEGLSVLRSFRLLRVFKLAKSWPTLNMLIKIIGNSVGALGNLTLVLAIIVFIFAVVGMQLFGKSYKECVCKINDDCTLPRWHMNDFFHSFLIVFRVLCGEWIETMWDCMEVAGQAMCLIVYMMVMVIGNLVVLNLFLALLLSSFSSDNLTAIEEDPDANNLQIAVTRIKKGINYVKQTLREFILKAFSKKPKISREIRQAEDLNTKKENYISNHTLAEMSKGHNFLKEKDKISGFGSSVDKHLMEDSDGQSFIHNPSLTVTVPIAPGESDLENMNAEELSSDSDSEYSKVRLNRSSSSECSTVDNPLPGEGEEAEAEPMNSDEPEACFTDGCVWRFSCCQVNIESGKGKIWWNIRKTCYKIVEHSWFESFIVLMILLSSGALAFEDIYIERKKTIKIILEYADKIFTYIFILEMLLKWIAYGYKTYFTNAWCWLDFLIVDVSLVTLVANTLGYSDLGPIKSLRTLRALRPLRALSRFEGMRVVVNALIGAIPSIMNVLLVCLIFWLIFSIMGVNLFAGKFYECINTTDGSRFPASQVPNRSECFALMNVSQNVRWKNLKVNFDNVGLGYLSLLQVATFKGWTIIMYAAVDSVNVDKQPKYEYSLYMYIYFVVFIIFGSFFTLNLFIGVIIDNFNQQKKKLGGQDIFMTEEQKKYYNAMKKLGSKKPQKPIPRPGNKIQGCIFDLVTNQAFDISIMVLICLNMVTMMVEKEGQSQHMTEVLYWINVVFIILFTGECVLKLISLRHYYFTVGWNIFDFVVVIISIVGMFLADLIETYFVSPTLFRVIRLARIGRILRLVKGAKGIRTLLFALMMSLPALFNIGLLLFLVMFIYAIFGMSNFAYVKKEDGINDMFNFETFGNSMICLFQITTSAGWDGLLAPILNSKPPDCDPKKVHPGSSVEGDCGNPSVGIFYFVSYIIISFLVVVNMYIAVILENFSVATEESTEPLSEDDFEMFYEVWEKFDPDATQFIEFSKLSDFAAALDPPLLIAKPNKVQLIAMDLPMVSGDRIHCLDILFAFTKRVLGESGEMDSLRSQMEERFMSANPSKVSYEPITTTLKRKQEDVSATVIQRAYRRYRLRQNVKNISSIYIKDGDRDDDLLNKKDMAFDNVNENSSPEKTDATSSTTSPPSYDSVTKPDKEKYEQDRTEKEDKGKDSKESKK
Procedure: Manual patch clamp recordings are conducted at RT using the voltage-clamp amplifier (Axon Instruments or HEKA electronik). Electrodes are pulled with P-97 electrode puller (Sutter Instrument). The electrode resistances are 1-3 MOhm when intercellular solution is filled. Currents are lowpass filtered between 2-5 kHz and digitally sampled at 10 kHz.
The extracellular and intercellular solutions for human Nav1.7 and NaV1.5 consist of the following composition:
Extracellular recording solution (mM): 135 NaCl, 5 KCl, 2 CaCl2, 1 MgCl2, 10 HEPES, and 10 Glucose, pH 7.4 adjusted with NaOH; and
Intercellular solution (mM): 120 CsF, 15 NaCl, 10 EGTA, and 10 HEPES, pH 7.2 adjusted with CsOH.
After whole-cell configuration is achieved, cell is monitored at least 10 minutes to allow cell dialysis with pipette solution. To evaluate of inhibitory effects of test compounds, the cells are clamped at −120 or −130 mV. […]
Peak currents evoked by Test 1 and Test 2 pulses are sampled with Clampex (Axon Instruments) or Pulse+Pulse Fit (HEKA). Averaged peak currents under vehicle or test compounds are calculated from 3 data points at end of each condition. Inhibitory effect (% inhibition) of test compound is calculated as bellow; % inhibition=[1−Averaged peak current (Compound)/Averaged peak current (Vehicle)]×100 [Math.5] […]

Nav1.7 [2] = molecular target: T1, Nav1.7; test: EFS-FRET assay; format: cell-based; conditions: CHO cells expressing human Nav1.7 channels; read-out: IC50 against Nav1.7
Procedure: This screen is used to determine the effects of compounds on human Nav1.7 channels, utilizing electrical field stimulation (EFS) system in 96-well plate format on FDSS (Hamamatsu Photonics) platform. The changes of membrane potential are monitored with FRET dye pair, DiSBAC2(3) and PTS 18.
CHO (Chinese hamster ovary) cells expressing human Nav1.7 channels are grown in T225 flasks, in a 5% CO2 humidified incubator to about 80% confluence. Media composition consists of HAM/F12 with Glutamax I, 10% FCS, 100 units/mL penicillin and 100 microgram/mL hygromycin.
Seed each cell lines (1×10^5 cells/well) into 96-well plates prior to experimentation.
Incubate at 37° C. in 5% CO2 for 24 hours.
Wash each well with assay buffer (140 mM NaCl, 4.5 mM KCl, 10 mM D-Glucose, 2 mM CaCl2, 1 mM MgCl2, 10 mM HEPES, pH 7.4 adjusted with NaOH) twice.
Add 1st loading solution containing 10 microM PTS 18 and 0.06% Pluronic F-127 in assay buffer.
Incubate the plate at rt in dark for 1 hour.
Remove 1st loading solution and add 2nd loading solution containing 12.5 microM DiSBAC2(3), 1.25 mM Xylene Fast Yellow and 0.0075% Pluronic F-127 in assay buffer.
Place the plate under the dark at rt for 25 minutes.
Add compound solutions into the assay plate.
Set the assay plate in FDSS and place an EFS device on the plate.
Measure EFS-induced fluorescent response by FDSS.
The data are analyzed and reported as normalized ratios of intensities measured at […]. The process of calculating these ratios is performed as follows:
(§1) This analysis is performed using a computerized specific program designed for FDSS generated data. Fluorescence ratio values are plotted using XLfit to determine an IC50 value for each compound.

Nav1.5 [3] = molecular target: T2, Nav1.5 (Homo sapiens (Human), UniProt Q14524); test: FRET assay; format: cell-based; conditions: HEK293 cells expressing human Nav1.5 channels; read-out: activity (IC50) against Nav1.5
T2 sequence (Q14524 whole entry): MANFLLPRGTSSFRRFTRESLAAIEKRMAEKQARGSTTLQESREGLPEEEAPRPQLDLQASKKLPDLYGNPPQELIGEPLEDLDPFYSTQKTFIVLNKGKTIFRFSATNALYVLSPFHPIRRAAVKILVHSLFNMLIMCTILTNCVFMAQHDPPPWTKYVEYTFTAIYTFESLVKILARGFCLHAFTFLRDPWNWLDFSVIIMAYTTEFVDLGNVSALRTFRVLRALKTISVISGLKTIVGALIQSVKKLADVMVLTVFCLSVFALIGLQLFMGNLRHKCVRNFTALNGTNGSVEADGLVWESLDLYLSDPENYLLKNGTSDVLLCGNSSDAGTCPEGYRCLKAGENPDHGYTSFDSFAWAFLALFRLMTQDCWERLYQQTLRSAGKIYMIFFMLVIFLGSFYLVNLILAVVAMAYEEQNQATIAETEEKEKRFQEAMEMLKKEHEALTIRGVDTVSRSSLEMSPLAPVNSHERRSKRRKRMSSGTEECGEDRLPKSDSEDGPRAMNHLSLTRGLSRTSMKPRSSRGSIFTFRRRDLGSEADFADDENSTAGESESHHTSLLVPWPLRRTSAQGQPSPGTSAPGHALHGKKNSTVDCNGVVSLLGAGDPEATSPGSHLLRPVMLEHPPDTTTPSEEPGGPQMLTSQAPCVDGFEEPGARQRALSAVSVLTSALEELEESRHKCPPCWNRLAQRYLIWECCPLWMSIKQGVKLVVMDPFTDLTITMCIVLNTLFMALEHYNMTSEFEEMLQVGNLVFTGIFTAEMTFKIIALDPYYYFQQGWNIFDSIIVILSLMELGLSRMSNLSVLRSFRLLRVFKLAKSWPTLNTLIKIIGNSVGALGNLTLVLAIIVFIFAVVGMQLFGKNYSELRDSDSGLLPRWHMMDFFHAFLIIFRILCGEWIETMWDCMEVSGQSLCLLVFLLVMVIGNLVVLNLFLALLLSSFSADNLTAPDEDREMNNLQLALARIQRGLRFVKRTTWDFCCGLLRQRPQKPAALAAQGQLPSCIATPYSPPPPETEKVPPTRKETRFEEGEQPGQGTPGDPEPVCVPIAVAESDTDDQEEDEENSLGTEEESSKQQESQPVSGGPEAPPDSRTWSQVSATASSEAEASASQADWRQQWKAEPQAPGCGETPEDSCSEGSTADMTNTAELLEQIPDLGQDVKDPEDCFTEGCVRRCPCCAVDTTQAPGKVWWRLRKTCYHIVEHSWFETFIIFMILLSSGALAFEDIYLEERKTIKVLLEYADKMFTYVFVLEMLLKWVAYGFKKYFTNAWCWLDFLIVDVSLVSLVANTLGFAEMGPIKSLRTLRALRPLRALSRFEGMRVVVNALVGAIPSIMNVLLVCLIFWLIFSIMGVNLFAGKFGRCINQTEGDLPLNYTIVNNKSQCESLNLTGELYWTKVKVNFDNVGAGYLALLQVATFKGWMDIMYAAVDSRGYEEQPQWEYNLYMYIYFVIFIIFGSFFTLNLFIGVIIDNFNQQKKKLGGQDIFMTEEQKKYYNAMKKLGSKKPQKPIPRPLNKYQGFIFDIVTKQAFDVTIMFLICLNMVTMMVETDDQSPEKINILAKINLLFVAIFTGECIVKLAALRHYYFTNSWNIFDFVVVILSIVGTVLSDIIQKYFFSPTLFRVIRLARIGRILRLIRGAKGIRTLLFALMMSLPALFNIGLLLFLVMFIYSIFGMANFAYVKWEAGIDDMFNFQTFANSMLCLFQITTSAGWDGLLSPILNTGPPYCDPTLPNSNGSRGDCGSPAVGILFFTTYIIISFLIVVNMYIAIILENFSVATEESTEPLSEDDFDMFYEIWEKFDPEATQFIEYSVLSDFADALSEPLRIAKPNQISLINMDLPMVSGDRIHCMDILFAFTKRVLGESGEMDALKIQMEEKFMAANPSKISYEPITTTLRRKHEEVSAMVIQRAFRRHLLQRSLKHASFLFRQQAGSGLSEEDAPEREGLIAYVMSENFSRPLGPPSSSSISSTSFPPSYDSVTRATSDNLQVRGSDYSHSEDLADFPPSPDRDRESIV
Procedure: This screen is used to determine the effects of compounds on human Nav1.5 channels, utilizing the cell imaging technology by Hamamatsu Photonics's Functional Drug Screening System (FDSS). The changes of membrane potential are monitored with fluorescent membrane potential dye pair, DiSBAC2(3) and CC2-DMPE, using FRET technology.
HEK293 cells expressing human Nav1.5 channels are grown in T225 flasks, in a 5% CO2 humidified incubator to about 80% confluence. HEK293 cells expressing human Nav1.5 channels are maintained in Dulbecco's Modified Eagle Medium (high glucose) supplemented with 10% fetal calf serum (FCS), 100 units/mL Penicillin, 100 microgram/mL Streptomycin and 500 microgram/mL Geneticine. […]
The data is analyzed and reported as normalized ratios of intensities measured in the 465 nm and 575 nm channels. […]
“FI465B”=the mean of fluorescence intensity as baseline (before Na^+ ligand addition) at 465 nm
“FI575B”=the mean of fluorescence intensity as baseline (before Na^+ ligand addition) at 575 nm
“FI465Max” maximum fluorescence intensity at 465 nm after Na^+ stimulation
“FI575Min”=minimum fluorescence intensity at 575 nm after Na^+ stimulation
as §1

Nav1.7 [4] = molecular target: T1, Nav1.7; test: Affinity to resting state (Kr) and inactivated state (Ki), manual patch clamp; format: cell-based; conditions: read-out: Ki (inactivated state) against Nav1.7
Description: Affinity to Resting State (Kr) and Inactivated State (Ki) of Test Compound
The normalized steady-state inactivation curve is constructed using 2 sec (for vehicle) or 60 sec (for drugs) conditioning pulse to different potentials followed immediately by the test pulse to −10 mV. Peak currents are plotted as fraction of the maximum current at the conditioning potentials ranging from −120 mV to 0 mV for Nav1.7. V1/2 and k values are estimated from Boltzmann fits. The affinity of test compound to resting state of Na channels (Kresting or Kr) is assessed by depolarizing test pulse from a negative holding potential of −130 mV, where virtually all channels are in the resting state. Kr value is calculated by a conventional 1:1 binding model: Kresting(Kr)={[drug]Imax,drug/(Imax,control−Imax,drug)} [Math.6] where Kresting (=Kr) is a dissociation constant for the resting state and [drug] is compound concentration. Imax,control and Imax,drug are peak currents in the absence and presence of compound, respectively.
Interaction of the compound with the channel on inactivated state is evaluated by the following equation: Kinact(Ki)={[drug]/((1+[drug]/Kr)*exp(−ΔV/k)−1)} [Math.7] where Kinact (=Ki) is a dissociation constant for the inactivated state. ΔV is the compound-induced voltage shift of half maximal voltage of Boltzmann curve and k is the slop factor on presense of compound.

Nav1.5 [5] = molecular target: T2, Nav1.5; test: Automated electrophysiology assay (Qpatch HTX); format: cell-based; conditions: Test 2 pulse, read-out: Inactivated IC50 against Nav1.5
Procedure: Automated Electrophysiology Assay
Automated patch clamp recordings are conducted for evaluation of inhibitory effect against Nav1.5 with the Qpatch HTX system according the manufacturer's specifications (Sophion).
The extracellular and intercellular solutions consist of the following composition:
Extracellular recording solution (mM): 137 NaCl, 4 KCl, 1.8 CaCl2, 1 MgCl2, 10 HEPES, and 10 Glucose, pH 7.4 adjusted with NaOH
Intercellular solution (mM): 135 CsF, 10 NaCl, 5 EGTA, and 10 HEPES, pH 7.3 adjusted with CsOH.
To evaluate of inhibitory effects of test compounds against Nav1.5, the cells are clamped at −110 mV. […]
Peak currents evoked by Testl and Test 2 pulses are sampled with Qpatch assay software (Sophion). Averaged peak currents under vehicle or test compounds are calculated from 3 data points at end of each condition. Inhibitory effect (% inhibition) of test compound is calculated as bellow; % inhibition=[1−Averaged peak current (Compound)/Averaged peak current (Vehicle)]×100 [Math.4]
Inhibitory effects (% inhibition) of each concentration are measured from at least 2 cells. Averaged inhibitory effects are plotted against test concentration and IC50 values at Test 1 (Closed IC50) or Test 2 (Inactivated IC50) are calculated with Hill equation, respectively. […]

Nav1.7 [6] = molecular target: T1, Nav1.7; conditions: data cited from the table at page 103 in WO2012/007868; read-out: IC50 against Nav1.7 channel; cited from earlier work

SMILES | IC50 (Nav1.7 [2]) | other results
CS(=O)(=O)NC(=O)c1ccc(COc2cccc(-c3ccc(OCC4CC4)nc3)c2)cc1 [Example 2, 4-((3-(6-(cyclopropylmethoxy)pyridin-3-yl)phenoxy)methyl)-N-(methylsulfonyl)benzamide] | 84 nM and 80 nM | selectivity for Nav1.7 over Nav1.5 (Nav1.7 [1]): 75 fold; IC50 (Nav1.5 [3]): > 30000 nM; Ki (Nav1.7 [4]): 22 nM
CS(=O)(=O)NC(=O)c1ccc(COc2cccc(-c3ccc(OCC4CC4)nc3)c2)c(F)c1 [Example 14, 4-((3-(6-(cyclopropylmethoxy)pyridin-3-yl)phenoxy)methyl)-3-fluoro-N-(methylsulfonyl)benzamide] | 50 nM | –
CS(=O)(=O)NC(=O)c1ccc(COc2cc(F)cc(-c3ccc(OCC4CC4)nc3)c2)cc1 [Example 30, 4-((3-(6-(cyclopropylmethoxy)pyridin-3-yl)-5-fluorophenoxy)methyl)-N-(methylsulfonyl)benzamide] | – | IC50 (Nav1.5 [5]): > 30000 nM
CS(=O)(=O)NC(=O)c1ccc(COc2cccc(-c3cc(CC4CC4)on3)c2)c(F)c1 [Example 84, 4-((3-(5-(cyclopropylmethyl)isoxazol-3-yl)phenoxy)methyl)-3-fluoro-N-(methylsulfonyl)benzamide] | 50 nM | –
CS(=O)(=O)NC(=O)c1ccc(COc2cccc(C3CCNCC3)c2)cc1 [WO2012/007868 Example 35] | – | IC50 (Nav1.7 [6]): > 3000 nM
Cc1c(OCc2cc(F)c(C(=O)NS(C)(=O)=O)cc2F)cccc1-n1cccn1 [WO2012/007868 Example 102] | – | IC50 (Nav1.7 [6]): > 3000 nM

Continued, in another order:

IC50 (Nav1.7 [2]) | SMILES | other results
50 nM | CS(=O)(=O)NC(=O)c1cc(F)c(COc2cccc(-c3ccc(OCC4CC4)nc3)c2)cc1F [Example 24, 4-((3-(6-(cyclopropylmethoxy)pyridin-3-yl)phenoxy)methyl)-2,5-difluoro-N-(methylsulfonyl)benzamide] | –
> 3000 nM | CS(=O)(=O)NC(=O)c1ccc(COc2cccc(-c3cccnc3)c2)cc1 [reference compound (A), reference compound] | –
1300 nM | CS(=O)(=O)NC(=O)c1ccc(COc2cccc(-c3cccnc3)c2)c(F)c1 [reference compound (B), reference compound] | –
600 nM | CS(=O)(=O)NC(=O)c1cc(F)c(COc2cccc(-c3cccnc3)c2)cc1F [reference compound (C), reference compound] | –
